Assay results: PubChem BioAssay AID651703 (Broad Institute, 2012)

Each compound was assayed against Transforming acidic coiled-coil-containing protein 3 (Homo sapiens) (UniProt Q9Y6A5) (assay: inhibition of ARNT PAS-B/TACC3 complex formation – biochemical, AlphaScreen, cherry-picked samples, confirmation (AID 651703;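 further: TACC3 partner is the GST-tagged E629A mutant dimer; hits lower the signal meaning they disrupt ARNT binding to TACC3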)). Settings: AlphaScreen His-ARNT PAS-B / GST-TACC3 binding, luminescence; call rule not given here.

AC50, active:
Cn1c(-c2ccccc2)cnc1N 37.5 µM, COc1cc(NCCCCCCN)c2ncccc2c1OC 16.1 µM, c1ccc(-c2nnc(Nc3nc(-c4ccccn4)nnc3-c3ccccc3)s2)cc1 1.74 µM, CCC(=O)NC(c1cc(Cl)c2cccnc2c1O)C1CC1 (stereo not given) 9.34 µM, O=C(COc1ccc([N+](=O)[O-])cc1)Nc1nc(-c2ccccn2)cs1 6.57 µM, Oc1cc(-c2ccncc2)cc2cccnc12 0.771 µM, CCOc1cc2c(C#N)c(N3CCOCC3)nc(N)c2c(N)n1 30.4 µM, O=C(CN1C(=O)CCC1=O)Nc1nc(-c2ccccn2)cs1 4.39 µM, Fc1ccc(-c2ccc(CNCc3ccccn3)o2)cc1Cl 17.5 µM, Cn1c(-c2ccc(Cl)cc2)cnc1N 20.5 µM, CC(=O)NC(c1ccc2ccccc2c1)c1ccc2cccnc2c1O (stereo not given) 5.44 µM, CCc1cc(C(=O)Nc2nc(-c3ccccn3)cs2)sc1C 22.9 µM, O=C(N[C@H]1CC[C@@H](CCn2cc(-c3ccccn3)nn2)O[C@@H]1CO)c1ccncc1 15.8 µM, CN(Cc1ccccc1)CC(O)COc1ccc(CNCc2nccn2C)cc1 (stereo not given) 47.9 µM, CN(C)S(=O)(=O)c1cccc(NC(=O)CSc2cccc3cccnc23)c1 5.76 µM, O=C(Nc1ccccc1C(F)(F)F)c1ncn[nH]1 13.1 µM, N[C@@H]1CC[C@@H](CCn2cc(-c3ccccn3)nn2)O[C@H]1CO 0.565 µM, c1ccc(-c2nnc(-c3ccccn3)nc2NCCN2CCOCC2)cc1 0.593 µM, c1ccc(-c2nnc(-c3ccccn3)nc2NCc2ccccn2)cc1 < 0.5 µM, Cc1ccc2ccc3cccnc3c2n1 7.33 µM, O=C(Nc1nc(-c2ccccn2)cs1)C12CC3CC(CC(O)(C3)C1)C2 6.45 µM, c1ccc(-c2nnc(-c3ccccn3)nc2NCC2CCOCC2)cc1 < 0.5 µM, O=[N+]([O-])c1ccc(O)c(-c2nn[nH]n2)c1 14 µM, CCN(CC)S(=O)(=O)c1cccc(C(=O)N/N=C/c2ccc(O)c(O)c2O)c1 4.5 µM, O=C(N/N=C/c1c(O)ccc2ccccc12)c1ccc(CO)nc1 10.8 µM, COc1cc(CCNc2ccc3nnc(-c4ccccc4)n3n2)cc(OC)c1OC 10.6 µM, Oc1ccc(CNC2Cc3ccccc3C2)c2cccnc12 0.63 µM, COc1ccc(NC(=O)CSc2ccc3nnc(-c4ccccn4)n3n2)cc1 26.2 µM, CC1CCN(S(=O)(=O)c2ccc(C(=O)Nc3nnc(C4=COCCO4)o3)cc2)CC1 1.21 µM, COc1ccc(S(=O)(=O)N2CCOC2CNC(=O)C(=O)NCCCn2ccnc2)cc1OC (stereo not given) 22.4 µM, CCOc1ccc(C(=O)CCNC(Cc2cnc[nH]2)C(=O)O)cc1 (stereo not given) 41.2 µM, COc1cccc(/C=N/NC(=O)C(=O)N2CCCCCC2)c1O 18.8 µM, CC1(C)Cc2c(sc3nc4n(-c5ccccc5)c(=O)c(CCC(=O)O)nn4c(=O)c23)CO1 19.2 µM, O=S(=O)(N[C@@H]1CC[C@@H](CCn2cc(-c3ccccn3)nn2)O[C@H]1CO)c1cccc(F)c1 21.5 µM, C/C=C/c1ccc([C@H]2[C@@H](CO)N(Cc3ccccn3)[C@H]2CNC(C)=O)cc1 45.9 µM, Cc1ccc(S(=O)(=O)/N=C2\C=C(Nc3ccc(O)cc3)C(=O)c3ccccc32)cc1 3.43 µM, CC(=O)NC(c1ccc(Cl)cc1Cl)c1ccc2cccnc2c1O (stereo not given) 5.14 µM, COCc1ccc(O)c2ncccc12 2.22 µM, O=C(N/N=C/c1cc(Cl)ccc1O)c1cccnc1 7.68 µM, O=C(N[C@H]1CC[C@H](CCn2cc(-c3ccccn3)nn2)O[C@H]1CO)c1ccncc1 14.4 µM, Cc1ccc(-c2cnc(N)n2C)cc1C 41.1 µM, Nn1c(SC/C=C/c2ccccc2)nnc1-c1ccccn1 5.62 µM, O=S(=O)(c1ccccc1)N1C[C@@H]2[C@H](c3ccccc31)[C@H](CO)N2Cc1ccccn1 61.5 µM, COc1ccc(C2c3ccc(O)cc3Oc3ncn4nc(-c5ccccn5)nc4c32)cc1OC (stereo not given) 52.5 µM, CC(C)(C)OC(=O)N1CCN(Cc2ccc(O)c3ncccc23)CC1 0.625 µM, Cc1ccc(C)c(S(=O)(=O)N2CCN(Cc3ccc(O)c4ncccc34)CC2)c1 5.27 µM, FC(F)(F)c1cnc(C(c2ccccn2)c2ncn[nH]2)c(Cl)c1 (stereo not given) 3.93 µM, Cc1cc(=O)[nH]c(-n2[nH]c3c(c2=O)CCCC3)n1 39.3 µM, Cc1oc(C(=O)O)cc1COc1cccc2cccnc12 36.6 µM, CCN(CC)c1ccc(/C=N/NC(=O)c2cnccn2)c(O)c1 11.3 µM, O=C(Nc1nnc(C2CC2)o1)c1ccc(S(=O)(=O)N2CCCCC2)cc1 18.4 µM, c1ccc(-c2nc3ccccc3[nH]2)nc1 44 µM, Cc1ccccc1CSc1nnc(-c2ccccn2)n1N 31.7 µM, O=C(NCCCn1ccnc1)C(=O)NCC1OCCN1S(=O)(=O)c1ccc(Cl)cc1 (stereo not given) 10.8 µM, Cc1csc(NC(=O)CSc2ccc(-c3ccccn3)nn2)n1 3.14 µM, Cc1ccc(CNc2nc(-c3ccccn3)nnc2-c2ccccc2)cc1C 0.558 µM, CCOC(=O)/C(=N/Nc1ccccc1OC)N1CCCc2ccccc21 17.3 µM, O=C(CN1CCCCCCC1)N/N=C/c1ccc(F)c(F)c1 65.8 µM, O=C(O)C1CCCCC1C(=O)NCCCn1ccnc1 (stereo not given) 54.4 µM, COc1ccc(C(=O)Oc2cccc3cccnc23)cc1[N+](=O)[O-] 15 µM, Oc1c(CN2CCN(c3ccc(F)cc3)CC2)cc(Cl)c2cccnc12 2.5 µM, Cc1cc(NC(=O)CC(C)C)c(=O)n(Cc2ccccc2F)c1 9.6 µM, Cc1nc(Nc2ccc(C(=O)O)cc2)nc(Nc2ccc(C(=O)O)cc2)c1[N+](=O)[O-] 22.1 µM, O=C(CSc1cccc2cccnc12)Nc1ccc(S(=O)(=O)N2CCOCC2)cc1 10.9 µM, Cc1ncc(CO)c(/C=N/NC(=O)c2cc3c(s2)CCCC3)c1O 11.3 µM, Cc1nnc(NC(=O)c2ccc(S(=O)(=O)N3CC(C)OC(C)C3)cc2)o1 (stereo not given) 44.6 µM, CC(Oc1ccc(F)cc1)C(=O)Nc1nc(-c2ccccn2)cs1 (stereo not given) 8.7 µM, O=C(Oc1c(CN2CCOCC2)cc(Cl)c2cccnc12)c1ccccc1Br 10.3 µM, O=C(N[C@@H]1CC[C@H](CCn2cc(-c3ccccn3)nn2)O[C@H]1CO)c1ccncc1 7.57 µM, NCCc1cnc[nH]1 23.1 µM, c1ccc(-c2cn(C[C@H]3CC[C@@H]([C@@H]4CC[C@H](Cn5cc(-c6ccccn6)nn5)O4)O3)nn2)nc1 0.659 µM, O=C(CSc1ccc(-c2ccccn2)nn1)NCc1ccc(F)cc1 6.65 µM, CC(=O)c1cccc(NC(=O)CSc2ccc(-c3ccccn3)nn2)c1 3.21 µM, CCC(=O)NC(c1ccc(N(C)C)cc1)c1c(O)ccc2ccccc12 (stereo not given) 35.5 µM, Cc1ccc(/C=N/Nc2cn[nH]c(=O)n2)o1 26.3 µM, Cc1cccc(C(=O)Nc2nnc(C3=COCCO3)o2)c1 12.6 µM, O=C(N[C@@H]1CC[C@H](CCn2cc(-c3ccccn3)nn2)O[C@@H]1CO)c1cccnc1 13.5 µM, CCCCC(=O)NC(c1ccc(N(C)C)cc1)c1ccc2cccnc2c1O (stereo not given) 2.63 µM, c1ccc(-c2nc3cc4ccccc4cc3[nH]2)nc1 32.7 µM, COc1cc(C(=O)NCc2nnc(SCC(=O)Nc3nccs3)o2)cc(OC)c1OC 58.8 µM, c1ccc(N=Nc2ccc3cccccc2-3)cc1 1.68 µM, O=S(=O)(N[C@@H]1CC[C@@H](CCn2cc(-c3ccccn3)nn2)O[C@H]1CO)c1cccc(Cl)c1 15.3 µM, CCCn1nc(C(=O)Nc2nc(-c3ccccn3)cs2)c2ccccc2c1=O 9.63 µM, Cc1[nH][nH]c(=O)c1C(c1ccc(-c2ccc(F)cc2)o1)c1c(C)[nH][nH]c1=O 19.6 µM, CCN(C(=O)COc1cccc2cccnc12)C1CCS(=O)(=O)C1 (stereo not given) 45.1 µM, O=C(COC(=O)c1cccc(O)c1)Nc1nnc(-c2ccccc2)o1 16 µM, CC1CCCC(C)N1/N=C/c1ccc([N+](=O)[O-])cc1 (stereo not given) 17 µM, O=C(O)c1ccc(C2CCCCC2)cn1 3.12 µM, O=C(Nc1nc(-c2ccccn2)cs1)c1ccc(F)c(S(=O)(=O)N2CCOCC2)c1 2.76 µM, COc1ccccc1Nc1nc(N)nc(CN(C)C2CCCCC2)n1 37.7 µM, CN(C)CCCNC(=O)c1ccc(-c2cc(O)c3ncccc3c2)cc1 2.78 µM, Clc1cccc(-c2ccc(CNCc3ccccn3)o2)c1 21.2 µM, c1ccc(-c2cnnc(-c3ccccn3)n2)cc1 2.57 µM, COc1ccc(C(=O)Cc2nnc(C)s2)c(OC)c1 67.3 µM, Cc1cccc(Nc2nc(-c3ccccn3)nnc2-c2ccccc2)n1 < 0.5 µM, COc1cc(NC(=O)CSc2ccc(-c3ccccn3)nn2)cc(OC)c1 1.78 µM, CSCC[C@H](NC(=O)OC(C)(C)C)C(=O)N/N=C/c1cccc2cccnc12 22.9 µM, C[C@@H]1CN([C@H](C)CO)C(=O)c2cc(NC(=O)Nc3ccc(C(F)(F)F)cc3)ccc2O[C@@H](C)CCCCO[C@H]1CN(C)Cc1ccc2c(c1)OCO2 64.9 µM, CCCCC(=O)NC(c1cccc([N+](=O)[O-])c1)c1ccc2cccnc2c1O (stereo not given) 4.22 µM, N[C@H]1CC[C@H](CCn2cc(-c3ccccn3)nn2)O[C@@H]1CO 1.03 µM
